Reference: patent publication US20090275753A1, “ORTHO-SUBSTITUTED ANILINE DERIVATIVE AND ANTIOXIDANT DRUG” (NIPPON SODA CO., LTD., priority 2005, published 2009)

How the values were obtained:
[1] = Test for evaluating oral absorption: serum concentration by HPLC; format: in vivo, rat; conditions: SD male rats, oral 30 mg/kg, one hour after administration
Procedure: (Test for Evaluating Oral Absorption)
The absorption of the compound of the present invention upon oral administration was evaluated in rats.
The compound of the present invention was dissolved in DMSO (final concentration: 20%), and then dissolved or suspended in a 0.1N hydrochloric acid physiological saline solution or a 1% polyethylene hardened castor oil (NIKOL HCO-60, manufactured by Nikko Chemicals Co., Ltd.).
This solution was administered orally, at a dose of 30 mg/kg, to a group of three SD male rats (Japan SLC, 6 weeks old). One hour after administration and following anesthetization, blood was collected from the abdominal vena cava in a plastic blood collection tube containing a serum separating agent. The blood sample was left to stand for approximately one hour, and following clotting, the serum was obtained by conducting a centrifugal separation at 3,000 rpm for a period of 10 minutes. […] The quantity of the compound of the present invention that existed within this filtered solution was measured by high-performance liquid chromatography (HPLC), under the conditions shown below. […]
The filtered solution for HPLC described in the previous paragraph was measured using the following representative conditions. […]

[2] = tested on: lipid peroxidation in retina homogenate; test: Test for evaluating tissue distribution: ex vivo inhibition of lipid peroxidation, retina; format: in vivo, rat; conditions: SD male rats, oral administration, one hour after administration, with feeding
Procedure: (§1) (Test for Evaluating Tissue Distribution)
(§2) The tissue distribution properties of the compound of the present invention were evaluated by measuring the ex vivo inhibition of lipid peroxidation.
(§3) The compound of the present invention was dissolved in DMSO (final concentration: 20%), and then dissolved or suspended in a 0.1N hydrochloric acid physiological saline solution or a 1% polyethylene hardened castor oil (NIKOL HCO-60, manufactured by Nikko Chemicals Co., Ltd.)
This solution was administered orally, at a dose of 30 mg/kg, to either a group of three SD male rats (Japan SLC, 6 weeks old) that had been feed-deprived for 24 hours, or a group of three SD male rats (Japan SLC, 6 weeks old) that had not been feed-deprived. One hour after administration and following anesthetization, the brains and eyeballs were removed. Using the method disclosed above in the section relating to the “test for evaluating in vitro inhibition of lipid peroxidation”, the brains, and the retinas separated from the eyeballs were homogenized, and the quantity of lipid peroxide within each tissue homogenate was then measured.
(§4) The inhibition rate of the compound of the present invention within each of the tissues was determined from the quantities of lipid peroxide generated in a control group (20% DMSO-0.1N hydrochloric acid physiological saline solution/1% polyethylene hardened castor oil) and in the group administered with the compound of the present invention.

[3] = tested on: lipid peroxidation in brain homogenate; test: Test for evaluating tissue distribution: ex vivo inhibition of lipid peroxidation, brain; format: in vivo, rat; conditions: SD male rats, oral 30 mg/kg, one hour after administration, fasting
Procedure: as §1, §2, §3
This solution was administered orally, at a dose of 30 mg/kg, to either a group of three SD male rats (Japan SLC, 6 weeks old) that had been feed-deprived for 24 hours, or a group of three SD male rats (Japan SLC, 6 weeks old) that had not been feed-deprived. […] Using the method disclosed above in the section relating to the “test for evaluating in vitro inhibition of lipid peroxidation”, the brains, and the retinas separated from the eyeballs were homogenized, and the quantity of lipid peroxide within each tissue homogenate was then measured.
as §4

[4] = tested on: lipid peroxidation in pig retina homogenate; test: Test for evaluating in vitro inhibition of lipid peroxidation (thiobarbituric acid method); format: biochemical; conditions: 500 μM cysteine and 5 μM FeSO4, 30 minutes at 37° C., malondialdehyde, read-out: in vitro inhibition of lipid peroxidation (50% inhibition concentration IC50)
Procedure: (Test for Evaluating in vitro Inhibition of Lipid Peroxidation)
Evaluation of the in vitro inhibition of lipid peroxidation of the compound of the present invention was conducted in accordance with the method disclosed by Malvy et al. (Malvy, C., et al., Biochemical and Biophysical Research Communications, 1980, vol. 95, pp. 734 to 737).
As the organ, retinas that had been separated from pig eyeballs and subsequently stored at −80° C. were used. At the time of use, a 5-fold excess of a phosphate-buffered physiological saline solution (pH 7.4) was added, and the mixture was homogenized using a microhomogenizer (PHYSCOTRON, NITI-ON).
To this pig retina homogenate were added 0.15M KCl, the compound of the present invention, 500 μM cysteine and 5 μM FeSO4, and the mixture was then incubated for 30 minutes at 37° C.
The malondialdehyde generated upon decomposition of the lipid peroxide was measured using the thiobarbituric acid method. Based on the measured values, the 50% inhibition concentration (hereafter also referred to as “IC50”) of the compound of the present invention was determined.

concentration at 1 h ([1]; rat, serum) [nM]	serum concentration [1]	Compound	ex vivo inhibition of lipid peroxidation 50% inhibition quantity (ID50) Retina [2]	ex vivo inhibition of lipid peroxidation inhibition rate (%) Brain [3]	IC50 [4] [nM]
2400	–	Cc1c(C)c2c(c(CNc3ccc(-c4ccn[nH]4)cc3)c1N)CC(C)(C)O2 [Compound 29, 5-(4-(5-amino-2,2,6,7-tetramethyldihydrobenzofuran-4-ylmethylamino)phenyl)pyrazole]	60 (with feeding) mg/kg	–	–
–	–	Cc1c(C)c2c(c(CCc3ccccc3)c1N)CC(C)(C)O2 [Compound 83, 2,2,6,7-tetramethyl-4-phenylethyl-5-aminodihydrobenzofuran]	67 (with feeding) mg/kg	96 (fasting) %	260
–	Below detection limit	Cc1c(C)c2c(c(CN)c1N)CC(C)(C)O2 [Compound R-1, reference compound]	72 (with feeding) mg/kg	–	300
